Converted amounts (≈) assume the structure as drawn. Read-outs that look alike come from different tables or passages of the source.

10 compounds from article PMC8880098, “Synthesis, Antibacterial Evaluation, and Computational Studies of a Diverse Set of Linezolid Conjugates” (Pharmaceuticals, 2022) can be followed below.

The test system of data set [1] is Bacillus subtilis ATCC 6633. In words: Antibacterial MIC, microdilution susceptibility test (CLSI). It is filed as cell-based. The following applies: Bacillus subtilis. The source says:
(§1) The synthesized linezolid conjugates (3a–k, 5a–f, 7a–c, 9a–c, 11a–f, 13, and 15) were subjected for antimicrobial properties determination against Gram-positive (Staphylococcus aureus ATCC 6538, Bacillus subtilis ATCC 6633) and Gram-negative (Pseudomonas aeruginosa ATCC 15692, Escherichia coli ATCC 47076) bacteria by the standard technique.
(§2) Antibacterial properties of the synthesized compounds (3a–k, 5a–f, 7a–c, 9a–c, 11a–f, 13 and 15) were screened against Gram-positive (Staphylococcus aureus ATCC 6538, Bacillus subtilis ATCC 6633) and Gram-negative (Pseudomonas aeruginosa ATCC 15,692 and Escherichia coli ATCC 47076) bacteria utilizing the standard technique. Linezolid was used as a standard reference/drug in the current study. The tested bacterial strains were obtained from MERCIN Center, Faculty of Agriculture, Ain Shams University, Cairo, Egypt.
(§3) To determine the antibacterial activity, stock solutions of the tested compounds and standard reference were prepared with up to 100% DMSO and stored at […]. If necessary, the solutions were heated to 40–60 °C before testing to facilitate complete dissolution. Double distilled water was used in all dilutions prepared. […] A microdilution susceptibility test was used for MIC determination (Mueller–Hinton broth in 96-well plates) according to the CLSI (the Clinical and Laboratory Standards Institute, Malvern, PA, USA). The bacterial inoculum was adjusted to approximately 2.5–3 × 10^4 cells/mL in Mueller–Hinton broth and incubated in a ratio of 1:1 with the test derivatives in polystyrene 96-well flat-bottom microplates. Positive growth control (without test derivatives) and negative control (without bacteria) were included. The microplates were placed in an incubator set to 37 °C for 24 h. Absorbance was measured at 620 nm at the end of the incubation period. The cut-off level for follow-up studies was defined as a minimum of 90% inhibition of growth compared to the untreated sample. Experiments were conducted once in triplicate. For selected compounds, minimum inhibitory concentration (MIC) values were determined by dose–response experiments. Experiments were performed at least twice, in triplicate per concentration tested.
For orientation: In broth dilution the organism is exposed to a series of concentrations in liquid medium.

The test system of data set [2] is Escherichia coli ATCC 47076. The data set is described as above. It is filed as cell-based.
Excerpt: as §1, §2, §3

Data set [3] concerns Pseudomonas aeruginosa ATCC 15692. Described as above. It is filed as cell-based.
Excerpt: as §1, §2, §3

Data set [4] concerns Staphylococcus aureus ATCC 6538. Described as above. Particulars: Staphylococcus aureus. It is filed as cell-based.
Excerpt: as §1, §2, §3

Data set [5] concerns Bacillus subtilis ATCC 6633. In words: microbe, parasite or virus in culture. On the set-up: species or system bacteria; Broth microdilution MIC in Mueller-Hinton broth, absorbance at 620 nm. The following applies: ATCC6633, 24 h, read-out: Observed MIC, uM (B. subtilis).
Excerpt: as §3, with “Antibacterial properties of the synthesized compounds (3a–k, 5a–f, 7a–c, 9a–c, 11a–f, 13 and 15) were screened against Gram-positive (Staphylococcus aureus ATCC 6538, Bacillus subtilis ATCC 6633) and Gram-negative (Pseudomonas aeruginosa ATCC 15,692 and Escherichia coli ATCC 47076) bacteria utilizing the standard technique. Linezolid was used as a standard reference/drug in the current study. The tested bacterial strains were obtained from MERCIN Center, Faculty of Agriculture, Ain Shams University, Cairo, Egypt. To” for “To”

In data set [6] the test system is Staphylococcus aureus ATCC 6538. In words: microbe, parasite or virus in culture. On the set-up: species or system bacteria; Broth microdilution MIC in Mueller-Hinton broth, absorbance at 620 nm. The following applies: ATCC6538, 24 h, read-out: Observed MIC, uM (S. aureus).
Excerpt: as §3, with “Antibacterial properties of the synthesized compounds (3a–k, 5a–f, 7a–c, 9a–c, 11a–f, 13 and 15) were screened against Gram-positive (Staphylococcus aureus ATCC 6538, Bacillus subtilis ATCC 6633) and Gram-negative (Pseudomonas aeruginosa ATCC 15,692 and Escherichia coli ATCC 47076) bacteria utilizing the standard technique. Linezolid was used as a standard reference/drug in the current study. The tested bacterial strains were obtained from MERCIN Center, Faculty of Agriculture, Ain Shams University, Cairo, Egypt. To” for “To”

[7] abbreviates: ATCC6633, 24 h, Mueller–Hinton broth, 37 °C, 24 h, read-out: MIC, μg/mL ± SE, B. Subtilis (ATCC 6633).
The mark [8] stands for this setting: ATCC47076, Mueller–Hinton broth, 37 °C, 24 h, read-out: MIC, μg/mL ± SE, E. Coli (ATCC 47076).
The mark [9] stands for this setting: ATCC47076, value in parentheses, read-out: MIC (μmol), E. Coli (ATCC 47076) (converted).
[10] abbreviates: ATCC15692, Mueller–Hinton broth, 37 °C, 24 h, read-out: MIC, μg/mL ± SE, P. Aeruginosa (ATCC 15692).
[11] abbreviates: ATCC15692, value in parentheses, read-out: MIC (μmol), P. Aeruginosa (ATCC 15692) (converted).
[12] abbreviates: ATCC6538, 24 h, Mueller–Hinton broth, 37 °C, 24 h, read-out: MIC, μg/mL ± SE, S. Aureus (ATCC 6538).
[13] abbreviates: ATCC6538, value in parentheses, read-out: MIC (μmol), S. Aureus (ATCC 6538) (converted).

With `O=C(N[C@@H](Cc1ccccc1)C(=O)NC[C@H]1CN(c2ccc(N3CCOCC3)c(F)c2)C(=O)O1)OCc1ccccc1` [Compound 3e, Benzyl ((S)-1-((((S)-3-(3-fluoro-4-morpholinophenyl)-2-oxooxazolidin-5-yl)methyl)amino)-1-oxo-3-phenylpropan-2-yl)carbamate], the melting point was 120 to 122 °C. Besides, the MIC in data set [1] (setting [7]) was determined as 32 ± 1.9 µg/mL. In addition, in data set [2] (setting [8]), the MIC came out at 32 ± 1 µg/mL. Further, the MIC in data set [2] (setting [9]) was 55.5 µM. Further, the MIC in data set [3] (setting [10]) stood at 64 ± 2.1 µg/mL. For the same compound, in data set [3] (setting [11]), the MIC is 111 µM. Moreover, the MIC in data set [4] (setting [12]) was 32 ± 2.2 µg/mL. The MIC in data set [5] came to 55.5 µM (≈ 32 µg/mL). Besides, in data set [6], the MIC was found to be 55.5 µM (≈ 32 µg/mL).
Regarding `CC[C@H](C)[C@H](NC(=O)OC(C)(C)C)C(=O)NC[C@H]1CN(c2ccc(N3CCOCC3)c(F)c2)C(=O)O1` [Compound 3k, Tert-butyl ((2S,3S)-1-((((S)-3-(3-fluoro-4-morpholinophenyl)-2-oxooxazolidin-5-yl)methyl)amino)-3-methyl-1-oxopentan-2-yl)carbamate], the MIC in data set [1] (setting [7]) is 32 ± 1.3 µg/mL; in data set [2] (setting [8]), 32 ± 2.1 µg/mL; in data set [2] (setting [9]), 62.9 µM; in data set [3] (setting [10]) it was 32 ± 1.3 µg/mL; in data set [3] (setting [11]) it was 62.9 µM; in data set [4] (setting [12]), 32 ± 2.1 µg/mL. The MIC in data set [5] and in data set [6] was 62.9 µM (≈ 32 µg/mL) in each case.
In the case of `CNc1ccc(C(=O)NC[C@H]2CN(c3ccc(N4CCOCC4)c(F)c3)C(=O)O2)cc1` [Compound 5e, (S)-N-((3-(3-Fluoro-4-morpholinophenyl)-2-oxooxazolidin-5-yl)methyl)-4-(methylamino) benzamide], the melting point was in the range of 195 to 197 °C. For the same compound, the MIC in data set [1] (setting [7]) stood at 1 ± 0.1 µg/mL. Moreover, the MIC in data set [1] (ATCC6633, as quoted in running text, read-out: MIC against B. subtilis) was in the range of 2.33 to 2.5 µM. Further, the MIC in data set [1] (ATCC6633, value in parentheses, read-out: MIC (μmol), B. Subtilis (ATCC 6633) (converted)) is 2.33 µM. The MIC in data set [2] (setting [8]) worked out at 32 ± 1.6 µg/mL. Further, in data set [2] (setting [9]), the MIC is 74.7 µM. Further, in data set [3] (setting [10]), the MIC is 32 ± 2.2 µg/mL. In data set [3] (setting [11]), the MIC was 74.7 µM. Besides, the MIC in data set [4] (setting [12]) stood at 4 ± 0.2 µg/mL. In addition, in data set [4] (ATCC6538, as quoted in running text, read-out: MIC against S. aureus), the MIC fell in the range of 9.34 to 10 µM. For the same compound, in data set [4] (setting [13]), the MIC is 9.34 µM.
Compound `O=C(NC[C@H]1CN(c2ccc(N3CCOCC3)c(F)c2)C(=O)O1)c1ccncc1` [Compound 7a, (S)-N-((3-(3-Fluoro-4-morpholinophenyl)-2-oxooxazolidin-5-yl)methyl)isonicotin-amide] showed a melting point of 198 to 200 °C. Moreover, the MIC in data set [1] (setting [7]) is 2 ± 0.2 µg/mL. Moreover, the MIC in data set [2] (setting [8]) worked out at 32 ± 0.9 µg/mL. The MIC in data set [2] (setting [9]) is 79.9 µM. The MIC in data set [3] (setting [10]) was determined as 8 ± 0.1 µg/mL. Besides, in data set [3] (ATCC15692, read-out: MIC against P. aeruginosa), the MIC came to 20 µM. In addition, the MIC in data set [3] (setting [11]) was 20 µM. The MIC in data set [4] (setting [12]) worked out at 8 ± 0.3 µg/mL. For the same compound, in data set [4] (setting [13]), the MIC was 20 µM. Further, the MIC in data set [5] amounted to 5 µM (≈ 2 µg/mL).
Consider `O=C1O[C@@H](CNCc2ccc(F)cc2)CN1c1ccc(N2CCOCC2)c(F)c1` [Compound 11a, (S)-3-(3-Fluoro-4-morpholinophenyl)-5-[{(4-fluorobenzyl)amino}methyl] oxazolidin-2-one], for which the MIC in data set [1] (setting [7]) is 32 ± 1.2 µg/mL; in data set [2] (setting [8]), 32 ± 2.5 µg/mL; in data set [2] (setting [9]) it was 79.3 µM; in data set [3] (setting [10]), 32 ± 2.2 µg/mL; in data set [3] (setting [11]), 79.3 µM; in data set [4] (setting [12]), 32 ± 2.7 µg/mL. Also, the MIC in data set [5] and in data set [6] was 79.3 µM (≈ 32 µg/mL) each time.
For the compound `CS(=O)(=O)c1ccc(CNC[C@H]2CN(c3ccc(N4CCOCC4)c(F)c3)C(=O)O2)cc1` [Compound 11b, (S)-3-(3-Fluoro-4-morpholinophenyl)-5-[{(4-(methylsulfonyl)benzyl}amino]methyl) oxazolidin-2-one], the MIC in data set [1] (setting [7]) is 32 ± 1.4 µg/mL; in data set [2] (setting [8]), 32 ± 1.1 µg/mL; in data set [2] (setting [9]), 69 µM; in data set [3] (setting [10]), 64 ± 2.8 µg/mL; in data set [3] (setting [11]), 138 µM; in data set [4] (setting [12]), 32 ± 1.2 µg/mL. The MIC in data set [5] and in data set [6] was 69 µM (≈ 32 µg/mL) throughout.
For `O=C1O[C@@H](CNCc2ccc(C(F)(F)F)cc2)CN1c1ccc(N2CCOCC2)c(F)c1` [Compound 11c, (S)-3-(3-Fluoro-4-morpholinophenyl)-5-[{(4-(trifluoromethyl)benzyl}amino]methyl) oxazolidin-2-one], the MIC was 16 ± 0.4 µg/mL in data set [1] (setting [7]); 32 ± 0.9 µg/mL in data set [2] (setting [8]); 70.6 µM in data set [2] (setting [9]); 64 ± 1.5 µg/mL in data set [3] (setting [10]); 141 µM in data set [3] (setting [11]); 32 ± 0.8 µg/mL in data set [4] (setting [12]). For the same compound, the MIC in data set [5] stood at 35.3 µM (≈ 16 µg/mL); in data set [6], 70.6 µM (≈ 32 µg/mL).
Consider `O=C1O[C@@H](CNCc2cccc(Cl)c2)CN1c1ccc(N2CCOCC2)c(F)c1` [Compound 11d, (S)-5-[{(3-Chlorobenzyl)amino}methyl]-3-(3-fluoro-4-morpholinophenyl) oxazolidin-2-one], for which the MIC in data set [1] (setting [7]) is 32 ± 1.2 µg/mL; in data set [2] (setting [8]) it was 32 ± 2.1 µg/mL; in data set [2] (setting [9]), 76.2 µM; in data set [3] (setting [10]), 32 ± 1.7 µg/mL; in data set [3] (setting [11]), 76.2 µM; in data set [4] (setting [12]), 32 ± 1 µg/mL. The MIC in data set [5] and in data set [6] was 76.2 µM (≈ 32 µg/mL) in each case.
`COc1cc(CNC[C@H]2CN(c3ccc(N4CCOCC4)c(F)c3)C(=O)O2)cc(OC)c1` [Compound 11f, (S)-5-[{(3,5-Dimethoxybenzyl)amino}methyl]-3-(3-fluoro-4-morpholinophenyl) oxazo-lidine-2-one]: the MIC in data set [1] (setting [7]) was 32 ± 0.3 µg/mL; in data set [2] (setting [8]), 32 ± 0.8 µg/mL; in data set [2] (setting [9]) it was 71.8 µM; in data set [3] (setting [10]), 32 ± 1.9 µg/mL; in data set [3] (setting [11]) it was 71.8 µM; in data set [4] (setting [12]), 32 ± 1.7 µg/mL. The MIC in data set [5] and in data set [6] was 71.8 µM (≈ 32 µg/mL) in each case.
In the case of `O=C1O[C@@H](CNCCCO[N+](=O)[O-])CN1c1ccc(N2CCOCC2)c(F)c1` [Compound 13, (S)-3-[{(3-(3-Fluoro-4-morpholinophenyl)-2-oxooxazolidin-5-yl)methyl}amino] propyl nitrate], the MIC in data set [1] (setting [7]) is 32 ± 0.9 µg/mL; in data set [2] (setting [8]), 32 ± 0.6 µg/mL; in data set [2] (setting [9]), 80.3 µM; in data set [3] (setting [10]), 32 ± 1.5 µg/mL; in data set [3] (setting [11]), 80.3 µM; in data set [4] (setting [12]) it was 32 ± 1 µg/mL. Moreover, the MIC in data set [5] and in data set [6] was 80.3 µM throughout.

Usually melting point stands for the temperature, or range, at which the solid turns liquid.
